Laboratory results taken from patent US20080318842A1, “Cyclic Isodityrosine Derivatives” (priority 2004, published 2008).
Values after ≈ are worked out from the molar mass of the structure shown. Read-outs that look alike come from different tables or passages of the source.

Legend:
[1] = tested on: mouse peritoneal macrophages; assay: Inhibition of production of cholesteryl ester from [14C] oleic acid in mouse peritoneal macrophages; type: cell-based; conditions: for IC50: Peritoneal macrophage
Protocol: Production of a cholesteryl ester in mouse peritoneal macrophages was performed by partly modifying the method by Nishikawa et al (Nishikawa et al., the Journal of Biological Chemistry (JBC) 265, pp. 5226-5231, 1990). Mouse peritoneal macrophages were prepared from an ICR female mouse as follows. First, cells were isolated from the mouse peritoneal cavity using a Hank's balanced salt solution (HBSS) and then suspended in a GIT medium so as to have a concentration of 2×10^6 cells/mL. Subsequently, 0.25 mL of the suspension was placed in each of 48 wells on a plastic culture plate, and the plate was cultured in the presence of 5% CO2 at 37° C. for two hours. In order to remove non-adhesive cells, each well was then washed with 0.25 mL of an HBSS three times. Finally, 0.25 mL of a culture medium A (Dulbecco's modified Eagle's medium (DMEM) containing 100 u/mL of penicillin, 100 μg/mL of streptomycin, and an 8% lipoprotein-free serum) was added thereto.
The effect of inhibiting the synthesis of a cholesteryl ester of the agents (eurypamides A, A′, B, and D, and Compounds (1) to (12)) in the macrophages thus prepared was evaluated as follows: The amount of [^14C] cholesteryl ester and [^14C] triacylglycerol synthesized from [^14C] oleic acid was measured as follows, and a concentration of the agent at which the synthesis was inhibited by 50% (IC50: μg/mL) was determined.
First, the macrophages (5×10^5 cells/0.25 mL/well) were cultured in a plastic culture plate with 48 wells. Subsequently, 5 μL of [^14C] oleic acid (1 nmol, 0.05 μCi, which was dissolved in a phosphate buffered saline (PBS) containing 10% ethanol), liposome (having a composition of phosphatidylcholine/phosphatidylserine/diacetylphosphate/cholesterol=10/10/2/5 (nmol) in 10 μL of 0.3 M glucose), and 2.5 μL of each agent dissolved in methanol were added to each well. The plate was cultured for 14 hours, and the culture medium was then removed. Each of the wells was washed with a PBS three times. Subsequently, 0.25 mL of a PBS containing 0.1% (w/v) sodium dodecyl sulfate (SDS) was added to each well to lyse the cells. Lipid in the cells was extracted by the method by Bligh & Dyer (Bligh & Dyer, Can. J. Biochem. Physiol., 37, pp. 911-917, 1959). The volume of the organic solvent was reduced by centrifugation in vacuum. The solution was spotted on a thin-layer chromatography (TLC) plate (silica gel […], thickness: 0.5 mm, manufactured by Merck Ltd.) and developed with hexane/diethyl ether/acetic acid (70/30/1, v/v). The amounts of separated [^14C] cholesteryl oleate and [^14C] triacylglycerol were analyzed with a bioimage analyzer (BAS2000 manufactured by FUJIFILM Corporation).

MRSA K24 strain = assay: Imipenem activity-potentiating effect, paper-disc method on plate containing imipenem; type: cell-based, methicillin-resistant Staphylococcus aureus; conditions: for MRSA (mm) [10 μg/6 mm disc]: diameter of inhibition circle, 10 μg agent per 6 mm paper disc, plate with imipenem 10 μg/mL, 37° C., 20 hours
Protocol: In this example, clinically isolated MRSA K24 strain was used as an assay strain. A plate for control was prepared by adding 1.5% of agar (manufactured by Shimizu Shokuhin Kaisha, Ltd.) to Mueller-Hinton Broth (manufactured by DIFCO Laboratories), and a plate for assay was prepared by adding imipenem (trade name: Tienam for intramuscular injection, titer: 0.5, manufactured by Banyu Pharmaceutical Co., Ltd.) to the above composition so that the final concentration of imipenem was 10 μg/mL. These plates were used as assay plates. An inoculum solution was prepared by culturing the assay strain in Mueller-Hinton Broth for one night, and diluting the culture solution with the same culture medium so as to have a concentration of 0.5 McFarland units (about 10^8 cfu/mL). This inoculum solution was applied on each of the plates with a sterile cotton swab in accordance with the National Committee For Clinical Laboratory Standards (NCCLS) method. The antibacterial activities against the assay strain in the plates were evaluated by a paper-disc method as follows. Paper discs with a diameter of 6 mm impregnated with 10 μg of assay medical agents (eurypamides A, A′, B, and D, and Compounds (1) to (12)) were placed on each of the plates, and the plates were cultured at 37° C. for 20 hours.
On the plate for control, the assay strain was grown under the paper discs. […] In addition, the assay strain could be grown on the plate for assay. […] If the compound impregnated in the paper disc acts in combination with imipenem to exert anti-MRSA activity, growth of the assay strain would not be observed under and around the paper disc. Therefore, in this example, the imipenem activity-potentiating effect for MRSA is represented by a diameter of an inhibition circle (the diameter passing through the center of the paper disc) on the assay plates.

[2] = Mus musculus, 14 h, read-out: Macrophage [IC50 μg/mL]
[3] = Mus musculus, read-out: IC50 of inhibiting the production of cholesteryl oleate
[4] = Mus musculus, synthesis of [14C] cholesteryl ester from [14C] oleic acid, 14 hours culture, read-out: Macrophage [IC50 μg/mL]
[5] = mouse peritoneal macrophages, read-out: IC50 of inhibiting the production of cholesteryl oleate
[6] = synthesis of [14C] cholesteryl ester from [14C] oleic acid, 14 hours culture

Compound | IC50 [1, 2] [µg/mL] | IC50 [1, 3] [µg/mL] | effect of inhibiting the synthesis of a cholesteryl ester in macrophages, in words [1] | MRSA (mm) [10 μg/6 mm disc] (MRSA K24 strain) [mm] | imipenem activity-potentiating effect (anti-MRSA activity in combination with imipenem), in words (MRSA K24 strain) | IC50 [1, 4] [µg/mL] | IC50 [1, 5] [µg/mL] | Macrophage [IC50 μg/mL] [1, 6]
COC(=O)C1Cc2cc(Br)c(c(Br)c2)Oc2cc(cc(I)c2O)C[C@H](NC(=O)OCc2ccccc2)C(=O)N[C@@H]([C@H](C)OCc2ccccc2)C(=O)N1 (some centres unmarked) [Compound (1), N-Cbz-Thr(O-benzyl)-dibromo-iodo-eurypamide B methyl ester] | 3 (≈ 3.11 µM) | 3 (≈ 3.11 µM) | have an effect of inhibiting the synthesis of a cholesteryl ester in macrophages | 8 | potentiate |  |  | 
COC(=O)C1Cc2cc(Br)c(c(Br)c2)Oc2cc(cc(I)c2O)C[C@H](NC(=O)OC(C)(C)C)C(=O)N[C@@H]([C@H](C)OCc2ccccc2)C(=O)N1 (some centres unmarked) [Compound (2), N-Boc-Thr(O-benzyl)-dibromo-iodo-eurypamide B methyl ester] | 3 (≈ 3.22 µM) | 3 (≈ 3.22 µM) | have an effect of inhibiting the synthesis of a cholesteryl ester in macrophages | 8 | potentiate |  |  | 
C[C@@H](O)[C@@H]1NC(=O)[C@@H](NC(=O)OC(C)(C)C)Cc2cc(I)c(O)c(c2)Oc2c(Br)cc(cc2Br)CC(C(=O)O)NC1=O (some centres unmarked) [Compound (3), N-Boc-dibromo-iodo-eurypamide B] | > 10 |  |  | 10 | potentiate |  |  | 
COC(=O)C1Cc2cc(Br)c(c(Br)c2)Oc2cc(cc(I)c2O)C[C@H](N)C(=O)N[C@@H]([C@@H](C)O)C(=O)N1 (some centres unmarked) [Compound (4), dibromo-iodo-eurypamide B methyl ester] |  |  |  | 8 | potentiate | > 10 |  | 
COC(=O)[C@@H]1Cc2cc(Br)c(c(Br)c2)Oc2cc(cc(I)c2O)C[C@H](N)C(=O)N[C@@H](C(C)OCc2ccccc2)C(=O)N1 (some centres unmarked) [Compound (5), Thr(O-benzyl)-dibromo-iodo-eurypamide B methyl ester] |  |  |  | 8 | potentiate | > 10 |  | 
COC(=O)[C@@H]1Cc2cc(Br)c(c(Br)c2)Oc2cc(cc(I)c2O)C[C@H](NC(=O)OCC2c3ccccc3-c3ccccc32)C(=O)N[C@@H](C(C)OCc2ccccc2)C(=O)N1 (some centres unmarked) [Compound (6)] |  |  | have an effect of inhibiting the synthesis of a cholesteryl ester in macrophages |  | do not potentiate | 0.32 (≈ 0.304 µM) | 0.32 (≈ 0.304 µM) | 
COC(=O)[C@@H]1Cc2cc(Br)c(c(Br)c2)Oc2cc(cc(I)c2O)C[C@H](NC(=O)CCCCCNC(=O)OC(C)(C)C)C(=O)N[C@@H](C(C)OCc2ccccc2)C(=O)N1 (some centres unmarked) [Compound (7)] |  |  | have an effect of inhibiting the synthesis of a cholesteryl ester in macrophages |  | do not potentiate | 4.2 (≈ 4.02 µM) | 4.2 (≈ 4.02 µM) | 
COC(=O)[C@@H]1Cc2cc(Br)c(c(Br)c2)Oc2cc(cc(I)c2O)C[C@H](NC(=O)C(Cc2ccccc2)NC(=O)OC(C)(C)C)C(=O)N[C@@H](C(C)OCc2ccccc2)C(=O)N1 (some centres unmarked) [Compound (8)] |  |  | have an effect of inhibiting the synthesis of a cholesteryl ester in macrophages |  | do not potentiate | 5 (≈ 4.64 µM) | 5 (≈ 4.64 µM) | 
CC(OCc1ccccc1)[C@@H]1NC(=O)[C@@H](NC(=O)OC(C)(C)C)Cc2cc(I)c(O)c(c2)Oc2c(Br)cc(cc2Br)C[C@@H](C(=O)O)NC1=O (some centres unmarked) [Compound (9)] | > 10 |  |  | 17 | potentiate |  |  | 
CC(OCc1ccccc1)[C@@H]1NC(=O)[C@@H](N)Cc2cc(I)c(O)c(c2)Oc2c(Br)cc(cc2Br)C[C@@H](C(=O)O)NC1=O (some centres unmarked) [Compound (11)] |  |  |  | 12 | potentiate | > 10 |  | 
COC(=O)[C@@H]1Cc2cc(Br)c(c(Br)c2)Oc2cc(cc(I)c2O)C[C@H](NC(=O)OC(C)(C)C)C(=O)N[C@@H](C(C)O)C(=O)N1 (some centres unmarked) [Compound (12), N-Boc-dibromo-iodo-eurypamide B methyl ester] | > 10 |  |  | 9 | potentiate |  |  | 
C[C@@H](O)[C@@H]1NC(=O)[C@@H](N)Cc2ccc(O)c(c2)Oc2ccc(cc2)C[C@@H](C(=O)O)NC1=O [Eurypamide B, reference compound] |  |  |  |  |  |  |  | — (The symbol “-” in the column of macrophage in Table 1 means that the compound did not exhibit inhibition in its amount of 10 μg/mL)
Eurypamide A [reference compound] |  |  |  |  |  |  |  | — (The symbol “-” in the column of macrophage in Table 1 means that the compound did not exhibit inhibition in its amount of 10 μg/mL)
Eurypamide A′ [reference compound] |  |  |  |  |  |  |  | — (The symbol “-” in the column of macrophage in Table 1 means that the compound did not exhibit inhibition in its amount of 10 μg/mL)
Eurypamide D [reference compound] |  |  |  |  |  |  |  | — (The symbol “-” in the column of macrophage in Table 1 means that the compound did not exhibit inhibition in its amount of 10 μg/mL)
